Here are results for 3 compounds from patent US20050080076A1 (Xanodyne Pharmacal, Inc., priority 2003, published 2005).

In assay [1] the target is Dopamine D3 (Homo sapiens, UniProt P35462). The assay can be described thus: Receptor binding, Dopamine D3. The method, then:
(§1) Receptor-ligand binding studies were performed as known to one skilled in the art. Compounds evaluated were LMP, the parent compound, the NDM LMP metabolite of LMP, and the sulfoxide metabolite of LMP. These studies verified receptor binding and affinity by the parent compound, as well as identified other potential receptors for the parent compound and its metabolites, and identified and verified receptors and receptor affinity for the metabolites.
(§2) Dopamine receptor affinity included binding to D1, D2, D3, D4, and D5 receptors. Serotonin receptor affinity included binding to 5-HT1A, 5-HT2A, 5-HT2B, 5-HT2, 5-HT5A, 5-HT6, and 5-HT7 receptors. Alpha adrenergic receptor affinity included binding to α1A, α1B, α1C, α2A, α2B, and α2C receptors. Muscarinic receptor affinity included binding to M1, M2, M3, M4, and M5 receptors. Binding to the histamine H1 receptor, the calcium ion channel receptor, and the sodium ion channel receptor were also evaluated. In each of the tables, the following abbreviations are used: LMP indicates the parent compound levomepromazine. NDM LMP indicates the N-desmethyl (N-desmethyl) metabolite. Sulfoxide indicates the sulfoxide metabolite. […] Ki (the inhibition constants of binding) indicate binding affinity.

Assay [2] deals with T1, Serotonin 5-HT1A (Homo sapiens, UniProt P08908).
T1 sequence (P08908 1-422): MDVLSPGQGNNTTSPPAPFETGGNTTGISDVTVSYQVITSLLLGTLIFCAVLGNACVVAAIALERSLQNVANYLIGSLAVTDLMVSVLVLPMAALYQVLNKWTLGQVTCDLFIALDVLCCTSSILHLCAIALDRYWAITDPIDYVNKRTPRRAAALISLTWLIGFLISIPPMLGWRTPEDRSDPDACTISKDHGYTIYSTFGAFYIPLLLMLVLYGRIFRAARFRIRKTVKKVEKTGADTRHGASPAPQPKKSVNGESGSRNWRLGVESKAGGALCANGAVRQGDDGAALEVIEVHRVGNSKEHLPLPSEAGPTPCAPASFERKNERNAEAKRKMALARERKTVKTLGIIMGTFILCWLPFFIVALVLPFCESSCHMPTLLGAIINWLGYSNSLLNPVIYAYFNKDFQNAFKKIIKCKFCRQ
The assay can be described thus: Receptor binding, Serotonin 5-HT1A. The method, then:
as §1, §2

Assay [3] concerns the target Serotonin 5-HT2B (Homo sapiens, UniProt P41595). The assay can be described thus: Receptor binding, Serotonin 5-HT2B. As to the method: as §1, §2
The target in assay [4] is Serotonin 5-HT5A (Homo sapiens, UniProt P47898). The assay can be described thus: Receptor binding, Serotonin 5-HT5A. The method, then:
as §1, §2

Assay [5] concerns the target T2, Adrenergic α2C (Homo sapiens, UniProt P18825).
T2 sequence (P18825 1-462): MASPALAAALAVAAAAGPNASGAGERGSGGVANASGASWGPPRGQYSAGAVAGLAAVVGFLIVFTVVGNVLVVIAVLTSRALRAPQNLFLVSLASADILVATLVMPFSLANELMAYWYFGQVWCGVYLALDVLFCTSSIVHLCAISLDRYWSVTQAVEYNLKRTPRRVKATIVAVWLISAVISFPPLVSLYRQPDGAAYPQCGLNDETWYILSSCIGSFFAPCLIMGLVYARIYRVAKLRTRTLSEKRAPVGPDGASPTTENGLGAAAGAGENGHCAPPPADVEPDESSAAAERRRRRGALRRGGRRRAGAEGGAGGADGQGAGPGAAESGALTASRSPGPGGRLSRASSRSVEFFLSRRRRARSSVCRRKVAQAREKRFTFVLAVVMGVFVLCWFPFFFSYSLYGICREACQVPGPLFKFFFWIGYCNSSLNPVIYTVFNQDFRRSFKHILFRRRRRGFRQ
The assay can be described thus: Receptor binding, Adrenergic α2C. As to the method: as §1, §2

The target in assay [6] is T3, Muscarinic M4 (Homo sapiens, UniProt P08173).
T3 sequence (P08173 1-479): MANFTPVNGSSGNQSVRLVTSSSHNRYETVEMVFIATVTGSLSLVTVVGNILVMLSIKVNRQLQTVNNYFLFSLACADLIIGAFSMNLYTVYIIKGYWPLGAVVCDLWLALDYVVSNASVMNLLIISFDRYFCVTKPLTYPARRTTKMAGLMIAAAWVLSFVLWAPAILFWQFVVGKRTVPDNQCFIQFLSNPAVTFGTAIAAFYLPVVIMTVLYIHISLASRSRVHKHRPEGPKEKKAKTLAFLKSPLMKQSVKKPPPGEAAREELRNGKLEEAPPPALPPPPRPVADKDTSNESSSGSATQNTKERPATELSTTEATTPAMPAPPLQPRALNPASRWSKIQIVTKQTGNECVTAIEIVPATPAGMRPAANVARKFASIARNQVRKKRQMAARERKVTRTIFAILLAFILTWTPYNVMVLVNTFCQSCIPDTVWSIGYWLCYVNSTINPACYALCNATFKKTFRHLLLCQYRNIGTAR
The assay can be described thus: Receptor binding, Muscarinic M4. The method, then: as §1, §2

For assay [7], the target named is T4, Muscarinic M5 (Homo sapiens, UniProt P08912).
T4 sequence (P08912 1-532): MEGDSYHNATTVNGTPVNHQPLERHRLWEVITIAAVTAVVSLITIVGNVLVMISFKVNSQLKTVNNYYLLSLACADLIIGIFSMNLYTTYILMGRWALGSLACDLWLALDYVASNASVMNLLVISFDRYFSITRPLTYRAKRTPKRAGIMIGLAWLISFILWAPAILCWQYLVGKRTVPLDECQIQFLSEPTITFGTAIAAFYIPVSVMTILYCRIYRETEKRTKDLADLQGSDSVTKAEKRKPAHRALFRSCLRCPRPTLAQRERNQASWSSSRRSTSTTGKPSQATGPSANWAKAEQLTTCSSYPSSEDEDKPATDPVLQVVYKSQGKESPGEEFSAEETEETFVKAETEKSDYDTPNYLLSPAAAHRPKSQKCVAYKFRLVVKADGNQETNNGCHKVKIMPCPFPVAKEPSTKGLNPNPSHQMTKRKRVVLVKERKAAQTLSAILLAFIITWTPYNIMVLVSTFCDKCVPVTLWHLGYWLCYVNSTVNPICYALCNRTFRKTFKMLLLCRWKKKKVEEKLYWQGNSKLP
The assay can be described thus: Receptor binding, Muscarinic M5. The method, then: as §1, §2

In assay [8] the target is Histamine H1 (Homo sapiens, UniProt P35367). The assay can be described thus: Receptor binding, Histamine H1. The note with it: for Relative Affinity: Histamine; for Ki: Histamine H1. The method, then:
as §1, §2

Assay [9] concerns α2 adrenergic receptors. The assay can be described thus: Receptor affinity summary, α2 adrenergic receptors. More on the design: key to Relative Affinity: ≧ indicates greater or equal affinity; = indicates about the same affinity; − indicates no affinity. The note with it: for Relative Affinity: α2-Adrenergic. It counts as binding. The method, then:
as §1, §2

Histamine H1, sequence (P35367 whole entry): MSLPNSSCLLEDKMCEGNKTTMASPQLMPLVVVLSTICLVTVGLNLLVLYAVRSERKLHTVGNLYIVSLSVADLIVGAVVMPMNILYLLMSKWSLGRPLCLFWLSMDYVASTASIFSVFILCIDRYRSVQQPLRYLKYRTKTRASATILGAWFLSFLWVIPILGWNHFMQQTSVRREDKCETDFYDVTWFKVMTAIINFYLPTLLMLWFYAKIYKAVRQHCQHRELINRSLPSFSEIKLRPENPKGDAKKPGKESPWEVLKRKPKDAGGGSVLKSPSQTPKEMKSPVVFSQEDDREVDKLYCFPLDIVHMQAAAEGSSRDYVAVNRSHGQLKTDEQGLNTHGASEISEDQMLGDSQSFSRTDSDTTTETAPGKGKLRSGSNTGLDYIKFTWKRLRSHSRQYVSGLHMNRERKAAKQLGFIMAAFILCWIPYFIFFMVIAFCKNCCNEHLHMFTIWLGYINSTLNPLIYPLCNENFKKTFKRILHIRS
Serotonin 5-HT2B, sequence (P41595 whole entry): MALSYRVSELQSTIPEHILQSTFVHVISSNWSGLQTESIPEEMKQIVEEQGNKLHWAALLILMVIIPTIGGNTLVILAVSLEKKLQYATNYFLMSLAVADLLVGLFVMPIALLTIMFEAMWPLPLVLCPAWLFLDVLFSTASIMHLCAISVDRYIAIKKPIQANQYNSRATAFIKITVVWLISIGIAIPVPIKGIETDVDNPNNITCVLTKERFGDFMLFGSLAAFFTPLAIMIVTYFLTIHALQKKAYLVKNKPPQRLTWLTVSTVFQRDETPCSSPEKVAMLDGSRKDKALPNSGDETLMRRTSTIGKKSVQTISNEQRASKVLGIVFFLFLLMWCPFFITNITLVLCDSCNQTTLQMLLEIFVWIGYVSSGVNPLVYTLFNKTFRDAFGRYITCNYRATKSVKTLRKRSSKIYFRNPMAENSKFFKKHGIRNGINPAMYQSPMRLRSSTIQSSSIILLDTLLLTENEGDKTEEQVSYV
Serotonin 5-HT5A, sequence (P47898 whole entry): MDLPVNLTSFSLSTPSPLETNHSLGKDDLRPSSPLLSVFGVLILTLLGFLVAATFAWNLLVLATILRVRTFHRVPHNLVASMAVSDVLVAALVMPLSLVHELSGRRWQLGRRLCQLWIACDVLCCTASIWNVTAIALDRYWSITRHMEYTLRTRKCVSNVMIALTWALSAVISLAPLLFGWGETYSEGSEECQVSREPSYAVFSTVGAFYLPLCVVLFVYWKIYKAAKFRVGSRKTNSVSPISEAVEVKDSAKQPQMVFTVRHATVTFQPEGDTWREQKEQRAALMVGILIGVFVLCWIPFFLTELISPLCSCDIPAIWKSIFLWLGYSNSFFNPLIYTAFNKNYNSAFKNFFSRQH
Dopamine D3, sequence (P35462 whole entry): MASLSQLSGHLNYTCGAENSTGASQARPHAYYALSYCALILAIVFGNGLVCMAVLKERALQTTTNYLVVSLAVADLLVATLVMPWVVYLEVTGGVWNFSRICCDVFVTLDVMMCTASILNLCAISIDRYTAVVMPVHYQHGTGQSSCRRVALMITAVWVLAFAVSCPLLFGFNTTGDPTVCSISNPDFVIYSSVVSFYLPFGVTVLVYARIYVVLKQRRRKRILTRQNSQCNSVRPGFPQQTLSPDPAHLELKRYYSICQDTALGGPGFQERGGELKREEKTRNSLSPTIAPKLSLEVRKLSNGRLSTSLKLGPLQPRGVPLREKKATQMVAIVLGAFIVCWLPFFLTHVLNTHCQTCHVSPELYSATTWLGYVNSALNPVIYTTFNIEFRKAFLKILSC

In general, Ki refers to the equilibrium dissociation constant of an inhibitor or competing ligand from its target. As for `COc1ccc2c(c1)N(C[C@H](C)CN(C)C)c1ccccc1[S+]2[O-]` (stereo partly shown) [Sulfoxide, levomepromazine sulfoxide], the Ki in assay [1] was greater than 10000 nM; in assay [2], greater than 10000 nM; in assay [3], greater than 10000 nM; in assay [4], greater than 10000 nM; in assay [5] it was greater than 10000 nM; in [6], 318 nM. Also, the figures for the Ki in assay [7] and in [8] were 481 nM and 6.1 nM, respectively. In addition, the “Relative Affinity” value in assay [8] is recorded as “LMP = NDM LMP = sulfoxide”; in assay [9] it was “−”. The “binding affinity to α2 adrenergic receptors (in words)” value (shortened to “binding affinity”) in [9] is reported as “no affinity was detected”.
Take `COc1ccc2c(c1)N(C[C@H](C)CN(C)C)c1ccccc1S2` [LMP, Levomepromazine]: the inhibition constant (Ki) in assay [1] is 4 nM; in assay [2], 827 nM; in assay [3] it was 19 nM; in [4], 136 nM; in assay [5], 77 nM; in [6], 34 nM. The Ki in assay [7] is 61 nM; in assay [8], 2 nM. The “binding affinity” value in [9] is given as “demonstrated binding”.
Take `CNCC(C)CN1c2ccccc2Sc2ccc(OC)cc21` (stereo not drawn) [NDM LMP, R(+) 2-methoxy-10-2-methyl-3-monomethylaminopropyl phenothiazine]: the Ki in assay [1] turned out to be 5 nM; in assay [2] it was 641 nM; in assay [3], 27 nM; in [4] it was 152 nM; in [5], 74 nM; in assay [6] it was 88 nM. Also, the Ki is 60 nM in assay [7] and 2.1 nM in [8]. Besides, the “Relative Affinity” value is reported as “LMP = NDM LMP = sulfoxide” in assay [8] and “LMP = NDM LMP” in assay [9]. Further, the “binding affinity” value in assay [9] is reported as “demonstrated binding”.
